# Earlier results, collected in article PMC6167001 (ACS Omega, 2018).
# Assays:
# [1] = tested on: HIV-1 mutants bearing L76V; details: inclusion of L76V in mutants bearing three other resistance mutations
# [2] = biological target: PRL76V (HIV-1 protease with mutation L76V)
compound,measurement,setting,value
"Cc1cccc(C)c1OCC(=O)N[C@@H](Cc1ccccc1)[C@@H](O)C[C@H](Cc1ccccc1)NC(=O)[C@H](C(C)C)N1CCCNC1=O [Compound 2, lopinavir]",increase in resistance associated with L76V,[1],eightfold
"CC(C)(C)NC(=O)[C@@H]1C[C@@H]2CCCC[C@@H]2CN1C[C@@H](O)[C@H](Cc1ccccc1)NC(=O)[C@H](CC(N)=O)NC(=O)c1ccc2ccccc2n1 [Compound 6, saquinavir]",increase in susceptibility associated with L76V,[1],eightfold
COc1ccc(S(=O)(=O)N(C[C@H]2CCC(=O)N2)C[C@@H](O)[C@H](Cc2ccccc2)NC(=O)O[C@@H]2C[C@@H]3CCO[C@@H]3C2)cc1 [GRL-02031],increase in inhibition constant (Ki) for PRL76V in comparison to PRWT,[2],twofold
